The values that follow come from BindingDB's records for patent US20250059196 (Shanghai Hansoh Biomedical, 2025).

This test deals with T1, Mucosa-associated lymphoid tissue lymphoma translocation protein 1 (Homo sapiens, UniProt Q9UDY8).
T1 sequence (Q9UDY8 whole entry): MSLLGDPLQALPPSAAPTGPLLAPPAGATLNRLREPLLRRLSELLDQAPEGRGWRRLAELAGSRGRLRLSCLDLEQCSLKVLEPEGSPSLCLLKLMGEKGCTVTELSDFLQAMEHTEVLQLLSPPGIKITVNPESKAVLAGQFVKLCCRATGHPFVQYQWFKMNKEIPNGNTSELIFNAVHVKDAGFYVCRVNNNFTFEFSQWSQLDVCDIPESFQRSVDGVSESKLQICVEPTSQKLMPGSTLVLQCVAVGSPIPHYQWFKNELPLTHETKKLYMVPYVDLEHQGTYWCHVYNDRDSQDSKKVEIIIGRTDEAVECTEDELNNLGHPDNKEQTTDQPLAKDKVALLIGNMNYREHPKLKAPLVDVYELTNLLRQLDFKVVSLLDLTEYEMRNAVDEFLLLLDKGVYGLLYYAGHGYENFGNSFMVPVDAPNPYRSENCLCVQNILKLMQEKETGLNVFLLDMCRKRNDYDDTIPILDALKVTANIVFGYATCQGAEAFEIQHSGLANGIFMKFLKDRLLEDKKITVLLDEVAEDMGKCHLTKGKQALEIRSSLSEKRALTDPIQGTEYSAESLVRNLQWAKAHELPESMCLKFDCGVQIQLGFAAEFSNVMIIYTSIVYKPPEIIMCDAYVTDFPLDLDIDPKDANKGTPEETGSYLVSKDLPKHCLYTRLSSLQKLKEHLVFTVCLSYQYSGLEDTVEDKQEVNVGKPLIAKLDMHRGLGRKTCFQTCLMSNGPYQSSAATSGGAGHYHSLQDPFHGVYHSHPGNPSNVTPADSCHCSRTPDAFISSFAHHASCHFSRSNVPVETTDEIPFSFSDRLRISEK
As to the kind of experiment: MALT1 Enzyme Activity Assay. How it is done: The compound and the enzyme were pre-incubated at room temperature for 50 min. The substrate was then added and the reaction was carried out for 4 h.
`O=C(Nc1ccc(-n2nccn2)c(C(F)(F)F)c1)c1cnn(-c2cnc3c4c(cccc24)C(=O)N3)c1C(F)(F)F` [US20250059196, Example 73] displayed an IC50 of 191 nM. In other words, the sub-micromolar range. Then `O=C(Nc1ccc(-n2cccn2)c(C(F)(F)F)c1)c1cnn(-c2ccc3c4c(cccc24)C(=O)N3)c1C(F)(F)F` [US20250059196, Example 51], with 47 nM; and `N#Cc1ccnn1-c1ncc(NC(=O)c2cnn(-c3ccc4c5c(cccc35)C(=O)N4)c2C(F)(F)F)cc1C(F)(F)F` [US20250059196, Example 32], with 123 nM; and `O=C(Nc1cnc(-n2nccn2)c(C(F)(F)F)c1)c1cnn(-c2ncc3c4c(cccc24)C(=O)N3)c1C(F)(F)F` [US20250059196, Example 87], with 84 nM. The value for `O=C(Nc1cnc(-n2cccn2)c(C(F)(F)F)c1)c1cnn(-c2ccc3c4c(cccc24)C(=O)N3)c1C(F)(F)F` [US20250059196, Example 31] was 40 nM; that for `Cc1nc(-c2ncc(NC(=O)c3cnn(-c4ccc5c6c(cccc46)C(=O)N5)c3C(F)(F)F)cc2C(F)(F)F)oc1C` [US20250059196, Example 35] was 59 nM.

`O=C(Nc1ccc(C(=O)N2CCCC2)c(C(F)(F)F)c1)c1cnn(-c2ccc3c4c(cccc24)C(=O)N3)c1C(F)(F)F` [US20250059196, Example 52] returned an IC50 of 104 nM. This IC50 lies about 1.8-fold higher than the previous one. For the molecule `CS(C)(=O)=Nc1ncc(NC(=O)c2cnn(-c3ccc4c5c(cccc35)C(=O)N4)c2C(F)(F)F)cc1C(F)(F)F` [US20250059196, Example 30], the IC50 was determined as 141 nM. Then `O=C(Nc1cnc(-n2cccn2)c(C(F)(F)F)c1)c1cnn(-c2cnc3c4c(cccc24)C(=O)N3)c1C(F)(F)F` [US20250059196, Example 69], with 81 nM; and `O=C(Nc1cnc(-n2nccn2)c(C(F)(F)F)c1)c1cnn(-c2cnc3c4c(cccc24)C(=O)N3)c1C1CC1` [US20250059196, Example 78], with 35 nM; and `O=C(Nc1ccc(-n2cccn2)c(C(F)(F)F)c1)c1cnn(-c2cnc3c4c(cccc24)C(=O)N3)c1C(F)(F)F` [US20250059196, Example 74], with 196 nM. Then `O=C(Nc1cnc(N2CCC2)c(Cl)c1)c1cnn(-c2ccc3c4c(cccc24)C(=O)N3)c1C(F)(F)F` [US20250059196, Example 48], with 140 nM; and `O=C(Nc1cnc(-c2ncco2)c(C(F)(F)F)c1)c1cnn(-c2ccc3c4c(cccc24)C(=O)N3)c1C(F)(F)F` [US20250059196, Example 34], with 32 nM. Then `O=C(Nc1cnc(-c2nccs2)c(C(F)(F)F)c1)c1cnn(-c2ccc3c4c(cccc24)C(=O)N3)c1C(F)(F)F` [US20250059196, Example 33], with 46 nM; and `CCc1cc(-n2ncc(C(=O)Nc3ccnc(C(F)(F)F)c3)c2C(F)(F)F)c2cccc3c2c1NC3=O` [US20250059196, Example 89], with 106 nM. Consider `O=C(Nc1ccc(-n2nccn2)c(Cl)c1)c1cnn(-c2cnc3c4c(cccc24)C(=O)N3)c1C(F)(F)F` [US20250059196, Example 75], for which the IC50 worked out at 24 nM. The value for `O=C(Nc1cnc(-n2ccnn2)c(C(F)(F)F)c1)c1cnn(-c2ccc3c4c(cccc24)C(=O)N3)c1C(F)(F)F` [US20250059196, Example 36] was 53 nM.
